This is an account of results in patent US12144819B2, “Pharmaceutical composition and use” (SpineThera, priority 2012, dated 2024).

A short description of data set [1]: In-vitro elution of the API from the microparticles in PBS. In kind it is physicochemical. Here is the method:
In-vitro elution of the API from the microparticles can be determined by adding a known amount of the microparticles to 5 mL phosphate buffered saline (PBS) solution at a pH 7.4, and maintaining a constant temperature of 37° C. At selected time intervals, a 2 mL aliquot can be withdrawn through a 0.4 μm filter for analysis; the amount of the aliquot withdrawn can be replenished with an equal amount of preheated PBS. The concentration of the API in the aliquot can be determined according to known methods such as HPLC. Sampling intervals can be adjusted to maintain drug concentration below sink conditions in the test vials.

A short description of data set [2]: Epidural administration in canine subjects using fluoroscopically-guided injection. In kind it is in vivo, beagles. The following applies: for drug released in-vivo (elution profile): procedure A1 microparticles. The text has this: This exemplary approach is a modified version of that described by Cohen (vide supra). Male and female beagles can be acclimated and subjected to baseline neurologic and clinical chemistry examinations. Prior to treatment dogs can be anesthetized with propofol. The injection site can be shaved, and a 19-gauge epidural Touhy needle can be inserted at the L6-7 or L7-S1 interspace. A 22-gauge catheter can be threaded 8-10 cm to approximately the L2-L3 level. The position of the catheter can be verified by injection of contrast media under fluoroscopy. Two (2) mL of an aqueous suspension of microparticles, prepared according to procedure A1 above, can be injected over a period of about 2 minutes. After about 10 minutes the catheter can be removed. Before and after surgery, subject baseline measurements can be obtained, including, for example, temperature and specific behavioral measures (pain tolerance, reflex, mobility, etc.). Before injection, and every 2 days after injection for 84 days, heart rate, blood pressure in the tail, spinal reflexes, sensory and pain responses, proprioception, gait and movement, cranial nerve function, and fundoscopic examination data can be recorded to observe the safety of the injected pharmaceutical composition. Blood samples can be collected prior to injection, then at 1, 2, 4, 8, 24, and 72 hour intervals after injection, and every 7 days thereafter to analyze for the pharmaceutical agent and its metabolized forms. At scheduled intervals, necropsy and histopathology can be performed as described by Cohen, vide supra, in a sub-set of animals.
Without wishing to be bound by theory, pharmaceutical compositions of the type described herein are not expected to elicit any significant or appreciable degree of inflammatory response or cause necrosis. Histological examination may reveal the microparticles to be localized and agglomerated within the epidural space at the site of injection with no evidence of the presence of the injection vehicle after 2 about days. Contents of the treated epidural pocket can be recovered by dissection. The injected microparticles can be isolated from epidural tissue and assayed for drug concentration to determine an in-vivo elution profile. It can be reasonably expected that dexamethasone acetate will be released continuously over 12 weeks, with about 20% of the drug released in 3 days, 50% in 25 days, and 80% in 70 days, with complete microparticle polymer degradation in about 16 weeks.

With “9 alpha-fluoro-11-beta, 17-alpha, 21-trihydroxy-16 alpha-methylpregna-1,4-diene-3,20-dione 21-acetate [dexamethasone acetate]”, the “duration of continuous release in-vitro” value in data set [1] worked out at 12 weeks. Besides, the drug released in-vitro entry in data set [1] (in 3 days) is reported as “about 10%”; in data set [1] (in 25 days), approximately 25%; in data set [1] (in 70 days) it was approximately 40%. In addition, the “duration of continuous release in-vivo” value in data set [2] turned out to be 12 weeks. The “time to complete microparticle polymer degradation” value in data set [2] is on record as “about 16 weeks”. The “drug released in-vivo (elution profile)” value was “about 20%” in data set [2] (in 3 days), approximately 50% in data set [2] (in 25 days) and approximately 80% in data set [2] (in 70 days).
